Reference: US20090209573A1, “COMPOUNDS AND COMPOSITIONS AS HEDGEHOG PATHWAY MODULATORS” (IRM LLC, priority 2004, published 2009)

Experiments:
Assay type in all cases: cell-based
[1] = tested on: Shh-mediated pathway activation (Gli-reporter in C3H10T1/2 cells); experiment: Gli-Luc Reporter Assay for Hh Pathway Inhibition; conditions: C3H 10T1/2, recombinant mouse Shh protein 2 μg/mL, 48 hours, firefly luciferase normalized to Renilla, read-out: EC50 to block Shh-mediated pathway activation
Protocol: Gli-Luc Reporter Assay for Hh Pathway Inhibition
Mouse embryonic mesoderm fibroblasts C3H10T1/2 cells (obtained from American Type Culture Collection, ATCC, Manassas, Va.) are cultured in MEM-α medium (Gibco/Invitrogen, Carlsbad, Calif.) supplemented with 10% heat inactivated FBS (Gibco/Invitrogen, Carlsbad, Calif.), 50 unit/mL penicillin and 50 μg/mL of streptomycin (Gibco/Invitrogen, Carlsbad, Calif.) at 37° C. with 5% CO2 in air atmosphere. C3H10T1/2 cells in a 10 cm dish are co-transfected with 8 μg of Gli-reporter plasmid and 2 μg of Renilla luciferase control reporter (Promega, Madison, Wis.) with 30 μL of FuGENE6 (Roche Diagnostics, Indianapolis, Ind.) following the manufacturer's protocol. After 12 hours, cells are trypsinized and replated into a 96-well plate with MEM-α medium supplemented with 2% FBS, and treated with recombinant mouse Shh protein (expressed in E. coli, 2 μg/mL) and different concentrations of a compound of the invention. After 48 hours, the firefly luciferase and Renilla luciferase activities are assayed with the Dual-Glo™ Luciferase Assay System (Promega, Madison, Wis.). Firefly luciferase activity is normalized to Renilla luciferase activity. The EC50 is measured when the effect of the compound reduces the luminescence signal by 50%.

[2] = tested on: Daoy cells (medulloblastoma cell line); experiment: Cyto-toxicity Assay (Cell Titer-Glo cell viability), Daoy cells; conditions: Homo sapiens, 48 h, 2 days, luminescent cell viability, read-out: EC50 against the proliferation of Daoy cells
Protocol: (§1) A cytotoxicity assay is performed to compare the effects of a compound of the invention on medulloblastoma cells (Daoy cells), basal cell carcinoma cells (TE354.T cells) and control cells (human normal fibroblast) according to the following procedure:
Daoy cells (medulloblastoma cell line) are purchased from ATCC, and cultured in Minimum essential medium (Eagle) with 2 mM L-glutamine and Earle's BSS adjusted to contain 1.5 g/L sodium bicarbonate, 0.1 mM non-essential amino acids, and 1.0 mM sodium pyruvate and 10% FBS at 37° C. with 5% CO2 in an air atmosphere.
(§2) Each of the above cell lines are independently seeded into 96-well plates and cultured to a density of 5,000-10,000 cells/well. A compound of the invention, at different concentrations, is added into the cell cultures. After 2 days, the cell viability is evaluated with Cell Titer-Glo Luminescent Cell Viability Assay Kit (Promega) following the manufacturer's protocol. The cell viability is directly measured by luminescent signaling and EC50s are measured when the signal is inhibited 50%.

[3] = tested on: normal human dermal fibroblast cells; experiment: Cyto-toxicity Assay (Cell Titer-Glo cell viability), control cells; conditions: 2 days, luminescent cell viability
Protocol: as §1
Normal human dermal fibroblast cells (Clonetics) are cultured in Fibroblast Growth Medium (Clonetics).
as §2

CCOc1ccc(Nc2nc(-c3c(C)nc4ccccn34)cs2)cc1 [Example 1, (4-Ethoxy-phenyl)-[4-(2-methyl-imidazo[1,2-a]pyridin-3-yl)-thiazol-2-yl]-amine]
EC50 [1]: 30 nM
EC50 [2]: 30 nM
toxic effect on normal human dermal fibroblast cells (control) [3]: no toxic effect
